Assay results: the kinase profiling compilation of Christmann-Franck et al. (2016)

Columns and labels:
Assay in all cases: radiometric filter-binding kinase assay
[1] = molecular target: DYRK3 (human) (UniProt O43781)
[2] = molecular target: IKBKB (human) (UniProt O14920)
[3] = molecular target: SYK (human) (UniProt P43405)
[4] = molecular target: MAPK11 (human) (UniProt Q15759)
[5] = molecular target: MAPK3 (human) (UniProt P27361)
[6] = system: PINK1 (Tribolium castaneum); conditions: accession and sequence are those of the human protein
[7] = molecular target: CSNK2A1 (human) (UniProt P68400)
[8] = molecular target: AURKB (human) (UniProt Q96GD4)
[9] = molecular target: MAPK15 (human) (UniProt Q8TD08)
[10] = molecular target: EEF2K (human) (UniProt O00418)
[11] = molecular target: INSRR (human) (UniProt P14616)
Sequence of INSRR (human) (P14616 whole entry, looked up): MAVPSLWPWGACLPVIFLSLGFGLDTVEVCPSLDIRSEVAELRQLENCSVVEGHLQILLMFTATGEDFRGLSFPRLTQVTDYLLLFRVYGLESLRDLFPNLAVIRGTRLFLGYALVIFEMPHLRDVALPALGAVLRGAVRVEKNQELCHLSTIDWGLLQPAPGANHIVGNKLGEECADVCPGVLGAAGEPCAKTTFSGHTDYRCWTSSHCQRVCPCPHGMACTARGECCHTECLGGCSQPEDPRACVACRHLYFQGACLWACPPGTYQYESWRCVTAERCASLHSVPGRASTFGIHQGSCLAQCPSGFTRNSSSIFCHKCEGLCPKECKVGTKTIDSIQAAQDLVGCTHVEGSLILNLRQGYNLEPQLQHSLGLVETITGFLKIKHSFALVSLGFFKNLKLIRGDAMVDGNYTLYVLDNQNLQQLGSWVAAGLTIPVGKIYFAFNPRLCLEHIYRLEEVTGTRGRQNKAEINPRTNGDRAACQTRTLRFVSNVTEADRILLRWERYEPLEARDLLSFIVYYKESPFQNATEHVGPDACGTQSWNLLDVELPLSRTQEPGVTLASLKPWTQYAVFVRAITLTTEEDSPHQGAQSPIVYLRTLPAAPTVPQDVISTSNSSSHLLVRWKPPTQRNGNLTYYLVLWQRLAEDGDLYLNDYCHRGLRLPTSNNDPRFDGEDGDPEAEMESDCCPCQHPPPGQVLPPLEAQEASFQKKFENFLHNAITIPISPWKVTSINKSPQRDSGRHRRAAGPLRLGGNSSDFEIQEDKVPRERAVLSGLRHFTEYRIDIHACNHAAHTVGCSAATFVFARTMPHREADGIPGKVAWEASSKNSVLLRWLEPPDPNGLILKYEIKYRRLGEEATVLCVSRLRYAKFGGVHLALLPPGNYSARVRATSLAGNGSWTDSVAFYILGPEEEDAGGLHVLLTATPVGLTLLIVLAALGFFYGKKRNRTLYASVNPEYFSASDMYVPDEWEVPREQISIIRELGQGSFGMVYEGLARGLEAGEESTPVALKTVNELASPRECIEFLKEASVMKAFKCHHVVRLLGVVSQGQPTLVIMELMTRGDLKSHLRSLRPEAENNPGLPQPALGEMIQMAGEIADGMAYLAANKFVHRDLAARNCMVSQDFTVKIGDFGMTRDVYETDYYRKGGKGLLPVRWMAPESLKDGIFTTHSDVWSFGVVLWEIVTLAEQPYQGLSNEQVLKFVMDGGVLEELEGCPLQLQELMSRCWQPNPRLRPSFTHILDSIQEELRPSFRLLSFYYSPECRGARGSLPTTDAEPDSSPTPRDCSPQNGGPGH

[12] = molecular target: TBK1 (human) (UniProt Q9UHD2)
[13] = molecular target: CAMKK2 (human) (UniProt Q96RR4)
Sequence of CAMKK2 (human) (Q96RR4 whole entry, looked up): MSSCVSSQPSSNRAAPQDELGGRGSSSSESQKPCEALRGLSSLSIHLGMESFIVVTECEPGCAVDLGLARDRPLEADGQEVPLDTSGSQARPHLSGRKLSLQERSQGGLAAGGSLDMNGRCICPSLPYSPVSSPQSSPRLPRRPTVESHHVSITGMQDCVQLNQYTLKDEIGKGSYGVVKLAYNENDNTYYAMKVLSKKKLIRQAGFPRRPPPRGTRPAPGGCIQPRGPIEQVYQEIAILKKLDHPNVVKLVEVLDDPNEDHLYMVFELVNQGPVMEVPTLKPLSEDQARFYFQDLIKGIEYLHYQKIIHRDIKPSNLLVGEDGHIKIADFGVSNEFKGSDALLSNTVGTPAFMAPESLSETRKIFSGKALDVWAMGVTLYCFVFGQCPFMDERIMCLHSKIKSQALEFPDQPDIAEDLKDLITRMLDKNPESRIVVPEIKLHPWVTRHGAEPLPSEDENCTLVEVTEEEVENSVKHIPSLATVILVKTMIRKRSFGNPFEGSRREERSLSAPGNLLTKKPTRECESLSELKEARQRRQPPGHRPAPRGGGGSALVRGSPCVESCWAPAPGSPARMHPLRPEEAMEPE

[14] = molecular target: PHKG1 (human) (UniProt Q16816)
[15] = molecular target: MYLK (human) (UniProt Q15746)
[16] = molecular target: CaMK1 (human) (UniProt Q14012)
[17] = molecular target: SRC (human) (UniProt P12931)
Sequence of SRC (human) (P12931 whole entry, looked up): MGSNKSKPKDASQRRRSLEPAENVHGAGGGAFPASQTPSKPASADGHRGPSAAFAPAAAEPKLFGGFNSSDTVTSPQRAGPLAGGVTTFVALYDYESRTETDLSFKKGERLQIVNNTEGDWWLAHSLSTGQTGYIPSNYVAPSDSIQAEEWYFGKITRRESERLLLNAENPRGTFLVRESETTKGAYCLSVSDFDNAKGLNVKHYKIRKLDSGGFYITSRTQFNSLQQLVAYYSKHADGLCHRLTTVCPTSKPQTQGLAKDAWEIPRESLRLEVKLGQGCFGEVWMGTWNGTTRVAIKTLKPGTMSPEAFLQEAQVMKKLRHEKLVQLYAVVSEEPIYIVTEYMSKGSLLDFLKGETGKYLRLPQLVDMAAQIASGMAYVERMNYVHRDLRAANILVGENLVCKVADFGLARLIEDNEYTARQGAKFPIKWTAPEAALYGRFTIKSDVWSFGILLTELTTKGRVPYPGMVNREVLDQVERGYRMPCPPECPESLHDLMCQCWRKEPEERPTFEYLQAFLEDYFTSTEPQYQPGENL

[18] = system: ROCK2 (rat); conditions: accession and sequence are those of the human protein
[19] = molecular target: MAPK14 (human) (UniProt Q16539)
Sequence of MAPK14 (human) (Q16539 whole entry, looked up): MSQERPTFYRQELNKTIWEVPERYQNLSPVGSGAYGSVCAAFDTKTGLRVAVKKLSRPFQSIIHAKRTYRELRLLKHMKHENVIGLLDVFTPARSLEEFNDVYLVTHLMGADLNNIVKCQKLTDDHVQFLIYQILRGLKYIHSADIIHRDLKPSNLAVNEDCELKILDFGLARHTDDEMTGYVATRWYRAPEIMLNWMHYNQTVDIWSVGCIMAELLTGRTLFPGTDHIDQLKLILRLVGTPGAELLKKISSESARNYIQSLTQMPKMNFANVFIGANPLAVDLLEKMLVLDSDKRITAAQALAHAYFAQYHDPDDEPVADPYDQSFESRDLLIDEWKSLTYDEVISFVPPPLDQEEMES

[20] = molecular target: MAP2K1 (human) (UniProt Q02750)
Sequence of MAP2K1 (human) (Q02750 whole entry, looked up): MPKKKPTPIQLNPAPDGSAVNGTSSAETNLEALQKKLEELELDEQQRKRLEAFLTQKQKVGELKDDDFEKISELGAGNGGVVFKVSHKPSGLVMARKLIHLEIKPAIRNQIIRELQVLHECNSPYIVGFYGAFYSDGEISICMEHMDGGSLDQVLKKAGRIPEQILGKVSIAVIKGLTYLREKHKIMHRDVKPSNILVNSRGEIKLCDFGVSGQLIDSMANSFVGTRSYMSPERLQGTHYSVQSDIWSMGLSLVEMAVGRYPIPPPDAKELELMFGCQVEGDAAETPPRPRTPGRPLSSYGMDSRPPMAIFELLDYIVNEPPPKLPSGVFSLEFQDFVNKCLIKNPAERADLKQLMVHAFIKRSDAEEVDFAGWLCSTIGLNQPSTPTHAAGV

[21] = system: SGK1 (human), O00141 [S422D]
Sequence of SGK1 (human), O00141 [S422D] (O00141 whole entry S422D, looked up): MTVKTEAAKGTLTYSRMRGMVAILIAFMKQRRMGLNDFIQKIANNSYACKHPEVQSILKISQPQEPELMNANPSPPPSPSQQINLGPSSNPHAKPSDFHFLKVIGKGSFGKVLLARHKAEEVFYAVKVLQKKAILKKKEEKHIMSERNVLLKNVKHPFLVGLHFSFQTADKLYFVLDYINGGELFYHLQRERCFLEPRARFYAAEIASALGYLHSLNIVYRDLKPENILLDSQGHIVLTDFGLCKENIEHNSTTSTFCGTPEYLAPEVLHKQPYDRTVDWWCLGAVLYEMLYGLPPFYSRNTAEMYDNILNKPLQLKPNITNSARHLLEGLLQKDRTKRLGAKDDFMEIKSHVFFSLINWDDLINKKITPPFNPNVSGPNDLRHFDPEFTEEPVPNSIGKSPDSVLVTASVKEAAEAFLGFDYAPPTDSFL

[22] = molecular target: HIPK2 (human) (UniProt Q9H2X6)
Sequence of HIPK2 (human) (Q9H2X6 whole entry, looked up): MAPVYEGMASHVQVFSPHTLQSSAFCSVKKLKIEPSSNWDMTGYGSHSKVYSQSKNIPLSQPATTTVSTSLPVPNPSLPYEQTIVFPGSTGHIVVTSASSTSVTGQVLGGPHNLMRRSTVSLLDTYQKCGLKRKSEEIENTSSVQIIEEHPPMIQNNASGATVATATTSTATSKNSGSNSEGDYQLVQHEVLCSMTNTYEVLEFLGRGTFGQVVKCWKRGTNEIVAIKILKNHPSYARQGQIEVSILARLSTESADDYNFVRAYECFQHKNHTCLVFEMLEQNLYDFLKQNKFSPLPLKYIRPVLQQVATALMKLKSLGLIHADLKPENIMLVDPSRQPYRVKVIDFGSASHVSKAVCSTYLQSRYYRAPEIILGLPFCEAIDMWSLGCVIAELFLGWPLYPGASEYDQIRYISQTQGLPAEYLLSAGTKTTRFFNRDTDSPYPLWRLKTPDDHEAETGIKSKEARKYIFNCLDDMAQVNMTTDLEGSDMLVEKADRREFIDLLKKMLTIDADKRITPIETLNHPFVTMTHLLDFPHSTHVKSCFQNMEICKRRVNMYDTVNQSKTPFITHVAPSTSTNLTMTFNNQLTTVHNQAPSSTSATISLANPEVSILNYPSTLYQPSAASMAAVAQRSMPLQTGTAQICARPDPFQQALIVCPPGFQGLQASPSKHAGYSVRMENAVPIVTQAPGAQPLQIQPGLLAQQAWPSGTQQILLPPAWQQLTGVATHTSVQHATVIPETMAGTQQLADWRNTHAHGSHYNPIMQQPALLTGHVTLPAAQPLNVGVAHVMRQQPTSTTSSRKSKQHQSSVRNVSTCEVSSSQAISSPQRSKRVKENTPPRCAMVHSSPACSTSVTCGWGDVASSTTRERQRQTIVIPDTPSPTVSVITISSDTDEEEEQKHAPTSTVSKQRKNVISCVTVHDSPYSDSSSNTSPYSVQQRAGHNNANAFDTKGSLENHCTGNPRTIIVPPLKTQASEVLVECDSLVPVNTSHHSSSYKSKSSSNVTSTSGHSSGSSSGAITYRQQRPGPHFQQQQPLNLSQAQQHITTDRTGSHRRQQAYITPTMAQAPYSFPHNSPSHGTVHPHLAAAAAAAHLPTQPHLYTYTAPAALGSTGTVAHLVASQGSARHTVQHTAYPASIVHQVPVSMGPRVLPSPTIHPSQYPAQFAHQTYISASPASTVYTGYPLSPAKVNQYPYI

[23] = molecular target: STK3 (human) (UniProt Q13188)
[24] = molecular target: MAPK1 (human) (UniProt P28482)
[25] = molecular target: RPS6KA1 KD1 KD2 (human) (UniProt Q15418)
[26] = molecular target: MAP3K1 (human) (UniProt Q13233); conditions: compound 1.0 µM
[27] = molecular target: EPHB3 (human) (UniProt P54753); conditions: compound 1.0 µM
[28] = molecular target: RIPK2 (human) (UniProt O43353); conditions: compound 1.0 µM
[29] = molecular target: ABL1 (human) (UniProt P00519); conditions: compound 1.0 µM
[30] = molecular target: EPHB2 (human) (UniProt P29323); conditions: compound 1.0 µM
[31] = molecular target: NUAK1 (human) (UniProt O60285); conditions: compound 1.0 µM
[32] = molecular target: MAP2K6 (human) (UniProt P52564); conditions: compound 1.0 µM
[33] = molecular target: TTK (human) (UniProt P33981); conditions: compound 1.0 µM
[34] = molecular target: CLK2 (human) (UniProt P49760); conditions: compound 1.0 µM
[35] = molecular target: MAP3K11 (human) (UniProt Q16584); conditions: compound 1.0 µM
[36] = molecular target: PRKCG (human) (UniProt P05129); conditions: compound 1.0 µM
[37] = molecular target: MARK1 (human) (UniProt Q9P0L2); conditions: compound 1.0 µM
[38] = molecular target: ZAP70 (human) (UniProt P43403); conditions: compound 1.0 µM
[39] = molecular target: EPHB4 (human) (UniProt P54760); conditions: compound 1.0 µM
[40] = molecular target: STK11 CAB39 STRADA (human) (UniProt Q9Y376+Q7RTN6+Q15831); conditions: compound 1.0 µM

Oc1ccc2c(c1)C(O)c1cc(O)ccc1-2
residual activity ([1]; compound 20.0 µM): 15% | residual activity ([2]; compound 20.0 µM): 94% | residual activity ([3]; compound 20.0 µM): 121% | residual activity ([4]; compound 20.0 µM): 106% | residual activity ([5]; compound 20.0 µM): 100% | residual activity ([6]; compound 20.0 µM): 68% | IC50 [7]: > 40 µM | residual activity ([7]; compound 20.0 µM): 52% | residual activity ([8]; compound 20.0 µM): 75% | residual activity ([9]; compound 20.0 µM): 25% | residual activity ([10]; compound 20.0 µM): 104% | residual activity ([11]; compound 20.0 µM): 47% | residual activity ([12]; compound 20.0 µM): 123% | residual activity ([13]; compound 20.0 µM): 91% | residual activity ([14]; compound 20.0 µM): 77% | residual activity ([15]; compound 20.0 µM): 77% | residual activity ([16]; compound 20.0 µM): 25% | residual activity ([17]; compound 20.0 µM): 70% | residual activity ([18]; compound 20.0 µM): 78% | residual activity ([19]; compound 20.0 µM): 84% | residual activity ([20]; compound 20.0 µM): 122% | residual activity ([21]; compound 20.0 µM): 70% | residual activity ([22]; compound 20.0 µM): 62% | residual activity ([23]; compound 20.0 µM): 39% | residual activity ([24]; compound 20.0 µM): 101% | residual activity ([25]; compound 20.0 µM): 70%

Oc1ccc2c(c1)oc1c3ccccc3c(O)cc21
residual activity ([1]; compound 1.0 µM): 17% | residual activity ([2]; compound 1.0 µM): 85% | residual activity ([3]; compound 1.0 µM): 84% | residual activity [26]: 67% | residual activity ([4]; compound 1.0 µM): 87% | residual activity ([5]; compound 1.0 µM): 86% | residual activity ([6]; compound 1.0 µM): 80% | IC50 [7]: 4 µM | residual activity ([7]; compound 1.0 µM): 87% | residual activity [27]: 97% | residual activity [28]: 107% | residual activity [29]: 83% | residual activity ([8]; compound 1.0 µM): 81% | residual activity ([9]; compound 1.0 µM): 37% | residual activity [30]: 100% | residual activity ([10]; compound 1.0 µM): 85% | residual activity ([11]; compound 1.0 µM): 24% | residual activity [31]: 88% | residual activity [32]: 92% | residual activity [33]: 63% | residual activity ([12]; compound 1.0 µM): 80% | residual activity ([13]; compound 1.0 µM): 76% | residual activity ([14]; compound 1.0 µM): 45% | residual activity ([15]; compound 1.0 µM): 46% | residual activity [34]: 8% | residual activity ([16]; compound 1.0 µM): 72% | residual activity ([17]; compound 1.0 µM): 85% | residual activity [35]: 76% | residual activity ([18]; compound 1.0 µM): 92% | residual activity ([19]; compound 1.0 µM): 83% | residual activity [36]: 97% | residual activity ([20]; compound 1.0 µM): 94% | residual activity ([21]; compound 1.0 µM): 80% | residual activity ([22]; compound 1.0 µM): 17% | residual activity ([23]; compound 1.0 µM): 64% | residual activity ([24]; compound 1.0 µM): 106% | residual activity ([25]; compound 1.0 µM): 83% | residual activity [37]: 88% | residual activity [38]: 90% | residual activity [39]: 103% | residual activity [40]: 71%

COc1ccc2c(c1)[nH]c1c(C)nccc12
residual activity ([1]; compound 1.0 µM): 31% | residual activity ([2]; compound 1.0 µM): 81% | residual activity ([3]; compound 1.0 µM): 93% | residual activity [26]: 89% | residual activity ([4]; compound 1.0 µM): 92% | residual activity ([5]; compound 1.0 µM): 102% | residual activity ([6]; compound 1.0 µM): 98% | IC50 [7]: > 40 µM | residual activity ([7]; compound 1.0 µM): 83% | residual activity [27]: 86% | residual activity [28]: 107% | residual activity [29]: 111% | residual activity ([8]; compound 1.0 µM): 94% | residual activity ([9]; compound 1.0 µM): 75% | residual activity [30]: 136% | residual activity ([10]; compound 1.0 µM): 73% | residual activity ([11]; compound 1.0 µM): 23% | residual activity [31]: 96% | residual activity [32]: 95% | residual activity [33]: 75% | residual activity ([12]; compound 1.0 µM): 87% | residual activity ([13]; compound 1.0 µM): 97% | residual activity ([14]; compound 1.0 µM): 84% | residual activity ([15]; compound 1.0 µM): 106% | residual activity [34]: 10% | residual activity ([16]; compound 1.0 µM): 88% | residual activity ([17]; compound 1.0 µM): 109% | residual activity [35]: 105% | residual activity ([18]; compound 1.0 µM): 102% | residual activity ([19]; compound 1.0 µM): 77% | residual activity [36]: 100% | residual activity ([20]; compound 1.0 µM): 102% | residual activity ([21]; compound 1.0 µM): 78% | residual activity ([22]; compound 1.0 µM): 68% | residual activity ([23]; compound 1.0 µM): 81% | residual activity ([24]; compound 1.0 µM): 100% | residual activity ([25]; compound 1.0 µM): 93% | residual activity [37]: 88% | residual activity [38]: 100% | residual activity [39]: 101% | residual activity [40]: 94%
